Literature values as cited in patent US20030027805A1, “Use of 1,4-androstadienedione as a method of increasing levels of the anabolic/androgenic steroid boldenone in humans” (priority 2000, published 2003).
Several values for one entry are separate records, joined by “and”; a condition that tells them apart may be missing. Identical values can stand only once.

Conditions: for excretion in 17-hydroxy form: urinary, after oral dosing, comparison reported in literature

Structure (SMILES) | excretion of 17beta-hydroxysteroid metabolites compared with 1-androstenedione (comparison by the same authors with later 1-androstenedione study) | total recovery of 17-OH steroids (human, two subjects, urine, within 24 hours after oral administration of 100 mg, boldenone conjugates plus other 17-beta hydroxysteroids) | urinary recovery of boldenone conjugates (human, two subjects, within 24 hours after oral administration of 100 mg) | excretion in 17-hydroxy form
C[C@]12C=CC(=O)C=C1CC[C@@H]1[C@@H]2CC[C@]2(C)C(=O)CC[C@@H]12 [androstadienedione, 1,4-androstadiene-3,17-dione] | far more | 18.4 % of the given dose and 21.2 % of the given dose | 7.1 % of the initial dosage and 11.1 % of the initial dosage | 
C[C@]12CCC(=O)C=C1CC[C@@H]1[C@@H]2CC[C@]2(C)C(=O)CC[C@@H]12 [androstenedione, reference compound] |  |  |  | only in very small amounts
C[C@]12CC[C@H]3[C@@H](CCC4=CC(=O)CC[C@@]43C)[C@@H]1CC[C@@H]2O [testosterone, reference compound] |  |  |  | only in very small amounts
